Test results published in patent US20250228861A1, “Cancer Treatments Using MTA-Cooperative PRMT5 Inhibitors” (AMGEN INC., priority 2022, published 2025).

Experiments:
H292 cells [1] = test: Combination with paclitaxel, CellTiter-Glo viability, Fa and CalcuSyn CI; assay type: cell-based; conditions: 6 days;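 further: fa derived from raw luminescence, CI computed in CalcuSyn from drug concentrations and Fa, with CI under 0.9 indicating synergism and 0.9 to 1.1 nearly additive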
Description: (§1) Cell viability was measured by the CellTiter-Glo Luminescence assay. Raw luminescent values were converted to fraction affected (Fa) with the following equation:
(§2) Synergy analysis was performed using the CalcuSyn software to determine CI scores based on the drug concentrations used and corresponding Fa values.

MIAPACA2T2 cells [2] = test: Combination with gemcitabine, CellTiter-Glo viability, Fa and CalcuSyn CI; assay type: cell-based; conditions: 6 days
Description: as §1, §2

H292 NSCLC xenografts = test: H292 NSCLC xenografts, combination with chemotherapy; assay type: in vivo, mice; conditions: 100 mg/kg orally once daily + paclitaxel 20 mg/kg IP
MIAPACA2T2 cells [3] = test: Combination with carboplatin, CellTiter-Glo viability, Fa and CalcuSyn CI; assay type: cell-based; conditions: 6 days
Description: as §1, §2

PSN1 cells = test: Combination with irinotecan, CellTiter-Glo viability, Fa and CalcuSyn CI; assay type: cell-based; conditions: 6 days
Description: as §1, §2

A549 cells [4] = test: Combination with pemetrexed, CellTiter-Glo viability, Fa and CalcuSyn CI; conditions: 6 days;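 further: fa derived from raw CellTiter-Glo luminescence, CI computed by CalcuSyn from drug concentrations and Fa, with values below 0.9 meaning synergism and 0.9–1.1 nearly additive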
Description: as §1, §2

A549 cells [5] = test: Combination with paclitaxel, CellTiter-Glo viability, Fa and CalcuSyn CI; assay type: cell-based; conditions: 6 days;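 further: luminescent viability signal converted to fraction affected (Fa), and Fa with drug concentrations gives the CalcuSyn CI, where 0.9–1.1 is nearly additive and lower CI means stronger synergism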
Description: as §1, §2

MIAPACA2T2 cells [6] = test: Combination with irinotecan, CellTiter-Glo viability, Fa and CalcuSyn CI; assay type: cell-based; conditions: 6 days
Description: as §1, §2

H292 cells [7] = test: Combination with pemetrexed, CellTiter-Glo viability, Fa and CalcuSyn CI; conditions: 6 days;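 further: fa derived from CellTiter-Glo luminescence signal, CI calculated in CalcuSyn from doses and Fa, with 0.9–1.1 nearly additive and smaller values indicating synergism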
Description: as §1, §2

[8] = Compound G 0.437382 μM fixed + Paclitaxel 0.0005 μM
[9] = Compound G 0.437382 μM fixed + Paclitaxel 0.0007 μM
[10] = Compound G 0.437382 μM fixed + Paclitaxel 0.0009 μM
[11] = Compound G 0.437382 μM fixed + Paclitaxel 0.0011 μM
[12] = Compound G 0.437382 μM fixed + Paclitaxel 0.0015 μM
[13] = Compound G 0.437382 μM fixed + Paclitaxel 0.0019 μM
[14] = Compound G 0.437382 μM fixed + Paclitaxel 0.0025 μM
[15] = Compound G 0.831 μM fixed + Gemcitabine 0.001322 μM
[16] = Compound G 0.831 μM fixed + Gemcitabine 0.001784 μM
[17] = Compound G 0.831 μM fixed + Gemcitabine 0.002409 μM
[18] = Compound G 0.831 μM fixed + Gemcitabine 0.003252 μM
[19] = Compound G 0.831 μM fixed + Gemcitabine 0.00439 μM
[20] = Compound G 0.831 μM fixed + Gemcitabine 0.005926 μM
[21] = Compound G 0.831 μM fixed + Gemcitabine 0.008 μM
[22] = Compound G 0.831 μM fixed + Carboplatin 2.47793 μM
[23] = Compound G 0.831 μM fixed + Carboplatin 3.3452 μM
[24] = Compound G 0.831 μM fixed + Carboplatin 4.51602 μM
[25] = Compound G 0.831 μM fixed + Carboplatin 6.09663 μM
[26] = Compound G 0.831 μM fixed + Carboplatin 8.23045 μM
[27] = Compound G 0.831 μM fixed + Carboplatin 11.1111 μM
[28] = Compound G 0.831 μM fixed + Carboplatin 15 μM
[29] = Compound G 0.0213 μM fixed + Irinotecan 0.035117 μM
[30] = Compound G 0.0213 μM fixed + Irinotecan 0.052675 μM
[31] = Compound G 0.0213 μM fixed + Irinotecan 0.079012 μM
[32] = Compound G 0.0213 μM fixed + Irinotecan 0.118519 μM
[33] = Compound G 0.0213 μM fixed + Irinotecan 0.177778 μM
[34] = Compound G 0.0213 μM fixed + Irinotecan 0.266667 μM
[35] = Compound G 0.0213 μM fixed + Irinotecan 0.4 μM
[36] = Compound G 0.437382 μM fixed + Pemetrexed 0.082858 μM
[37] = Compound G 0.437382 μM fixed + Pemetrexed 0.140859 μM
[38] = Compound G 0.437382 μM fixed + Pemetrexed 0.239461 μM
[39] = Compound G 0.437382 μM fixed + Pemetrexed 0.407083 μM
[40] = Compound G 0.437382 μM fixed + Pemetrexed 0.692042 μM
[41] = Compound G 0.437382 μM fixed + Pemetrexed 1.17647 μM
[42] = Compound G 0.437382 μM fixed + Pemetrexed 2 μM
[43] = Compound G 0.83102 μM fixed + Irinotecan 0.131072 μM
[44] = Compound G 0.83102 μM fixed + Irinotecan 0.16384 μM
[45] = Compound G 0.83102 μM fixed + Irinotecan 0.2048 μM
[46] = Compound G 0.83102 μM fixed + Irinotecan 0.256 μM
[47] = Compound G 0.83102 μM fixed + Irinotecan 0.4 μM
[48] = Compound G 0.83102 μM fixed + Irinotecan 0.5 μM
[49] = Compound G 0.83102 μM fixed + Irinotecan […]

Nc1nc2cnc(C(=O)N3CCOC[C@@H]3c3ccc(C(F)(F)F)cc3)cc2c2c1COC2 [Compound G]
Combination Fa (H292 cells [1]; [8]): 0.6656 | Computed CI value (H292 cells [1]; [8]): 0.92 | Combination Fa (H292 cells [1]; [9]): 0.7749 | Computed CI value (H292 cells [1]; [9]): 0.728 | Combination Fa (H292 cells [1]; [10]): 0.8617 | Computed CI value (H292 cells [1]; [10]): 0.658 | Combination Fa (H292 cells [1]; [11]): 0.8929 | Computed CI value (H292 cells [1]; [11]): 0.704 | Combination Fa (H292 cells [1]; [12]): 0.9417 | Computed CI value (H292 cells [1]; [12]): 0.749 | Combination Fa (H292 cells [1]; [13]): 0.957 | Computed CI value (H292 cells [1]; [13]): 0.85 | Combination Fa (H292 cells [1]; [14]): 0.974 | Computed CI value (H292 cells [1]; [14]): 0.94 | Combination Fa (MIAPACA2T2 cells [2]; [15]): 0.599 | Computed CI value (MIAPACA2T2 cells [2]; [15]): 1.117 | Combination Fa (MIAPACA2T2 cells [2]; [16]): 0.66 | Computed CI value (MIAPACA2T2 cells [2]; [16]): 1.094 | Combination Fa (MIAPACA2T2 cells [2]; [17]): 0.787 | Computed CI value (MIAPACA2T2 cells [2]; [17]): 0.962 | Combination Fa (MIAPACA2T2 cells [2]; [18]): 0.93 | Computed CI value (MIAPACA2T2 cells [2]; [18]): 0.793 | Combination Fa (MIAPACA2T2 cells [2]; [19]): 0.969 | Computed CI value (MIAPACA2T2 cells [2]; [19]): 0.825 | Combination Fa (MIAPACA2T2 cells [2]; [20]): 0.989 | Computed CI value (MIAPACA2T2 cells [2]; [20]): 0.826 | Combination Fa (MIAPACA2T2 cells [2]; [21]): 0.993 | Computed CI value (MIAPACA2T2 cells [2]; [21]): 0.981 | anti-tumor activity of combination with paclitaxel (H292 NSCLC xenografts): significant anti-tumor activity versus either single agent alone | Combination Fa (MIAPACA2T2 cells [3]; [22]): 0.711 | Computed CI value (MIAPACA2T2 cells [3]; [22]): 0.599 | Combination Fa (MIAPACA2T2 cells [3]; [23]): 0.766 | Computed CI value (MIAPACA2T2 cells [3]; [23]): 0.521 | Combination Fa (MIAPACA2T2 cells [3]; [24]): 0.832 | Computed CI value (MIAPACA2T2 cells [3]; [24]): 0.437 | Combination Fa (MIAPACA2T2 cells [3]; [25]): 0.881 | Computed CI value (MIAPACA2T2 cells [3]; [25]): 0.402 | Combination Fa (MIAPACA2T2 cells [3]; [26]): 0.939 | Computed CI value (MIAPACA2T2 cells [3]; [26]): 0.322 | Combination Fa (MIAPACA2T2 cells [3]; [27]): 0.963 | Computed CI value (MIAPACA2T2 cells [3]; [27]): 0.313 | Combination Fa (MIAPACA2T2 cells [3]; [28]): 0.966 | Computed CI value (MIAPACA2T2 cells [3]; [28]): 0.396 | Combination Fa (PSN1 cells; [29]): 0.4007 | Computed CI value (PSN1 cells; [29]): 0.981 | Combination Fa (PSN1 cells; [30]): 0.3585 | Computed CI value (PSN1 cells; [30]): 1.28 | Combination Fa (PSN1 cells; [31]): 0.4649 | Computed CI value (PSN1 cells; [31]): 1.168 | Combination Fa (PSN1 cells; [32]): 0.6137 | Computed CI value (PSN1 cells; [32]): 1.087 | Combination Fa (PSN1 cells; [33]): 0.8505 | Computed CI value (PSN1 cells; [33]): 0.852 | Combination Fa (PSN1 cells; [34]): 0.9402 | Computed CI value (PSN1 cells; [34]): 0.836 | Combination Fa (PSN1 cells; [35]): 0.9731 | Computed CI value (PSN1 cells; [35]): 0.916 | Combination Fa (A549 cells [4]; [36]): 0.669 | Computed CI value (A549 cells [4]; [36]): 0.846 | Combination Fa (A549 cells [4]; [37]): 0.651 | Computed CI value (A549 cells [4]; [37]): 1.064 | Combination Fa (A549 cells [4]; [38]): 0.693 | Computed CI value (A549 cells [4]; [38]): 0.882 | Combination Fa (A549 cells [4]; [39]): 0.712 | Computed CI value (A549 cells [4]; [39]): 0.922 | Combination Fa (A549 cells [4]; [40]): 0.834 | Computed CI value (A549 cells [4]; [40]): 0.363 | Combination Fa (A549 cells [4]; [41]): 0.918 | Computed CI value (A549 cells [4]; [41]): 0.132 | Combination Fa (A549 cells [4]; [42]): 0.948 | Computed CI value (A549 cells [4]; [42]): 0.087 | Combination Fa (A549 cells [5]; [8]): 0.6362 | Computed CI value (A549 cells [5]; [8]): 0.639 | Combination Fa (A549 cells [5]; [9]): 0.6087 | Computed CI value (A549 cells [5]; [9]): 0.863 | Combination Fa (A549 cells [5]; [10]): 0.7048 | Computed CI value (A549 cells [5]; [10]): 0.786 | Combination Fa (A549 cells [5]; [11]): 0.7817 | Computed CI value (A549 cells [5]; [11]): 0.77 | Combination Fa (A549 cells [5]; [12]): 0.9048 | Computed CI value (A549 cells [5]; [12]): 0.736 | Combination Fa (A549 cells [5]; [13]): 0.95 | Computed CI value (A549 cells [5]; [13]): 0.759 | Combination Fa (A549 cells [5]; [14]): 0.9687 | Computed CI value (A549 cells [5]; [14]): 0.869 | Combination Fa (MIAPACA2T2 cells [6]; [43]): 0.718 | Computed CI value (MIAPACA2T2 cells [6]; [43]): 0.691 | Combination Fa (MIAPACA2T2 cells [6]; [44]): 0.7359 | Computed CI value (MIAPACA2T2 cells [6]; [44]): 0.751 | Combination Fa (MIAPACA2T2 cells [6]; [45]): 0.8028 | Computed CI value (MIAPACA2T2 cells [6]; [45]): 0.72 | Combination Fa (MIAPACA2T2 cells [6]; [46]): 0.8794 | Computed CI value (MIAPACA2T2 cells [6]; [46]): 0.677 | Combination Fa (MIAPACA2T2 cells [6]; [47]): 0.9677 | Computed CI value (MIAPACA2T2 cells [6]; [47]): 0.655 | Combination Fa (MIAPACA2T2 cells [6]; [48]): 0.9854 | Computed CI value (MIAPACA2T2 cells [6]; [48]): 0.649 | Combination Fa (MIAPACA2T2 cells [6]; [49]): 0.9132 | Computed CI value (MIAPACA2T2 cells [6]; [49]): 0.729 | Combination Fa (H292 cells [7]; [36]): 0.602 | Computed CI value (H292 cells [7]; [36]): 1.359 | Combination Fa (H292 cells [7]; [37]): 0.63 | Computed CI value (H292 cells [7]; [37]): 1.184 | Combination Fa (H292 cells [7]; [38]): 0.678 | Computed CI value (H292 cells [7]; [38]): 0.914 | Combination Fa (H292 cells [7]; [39]): 0.741 | Computed CI value (H292 cells [7]; [39]): 0.64 | Combination Fa (H292 cells [7]; [40]): 0.827 | Computed CI value (H292 cells [7]; [40]): 0.342 | Combination Fa (H292 cells [7]; [41]): 0.885 | Computed CI value (H292 cells [7]; [41]): 0.216 | Combination Fa (H292 cells [7]; [42]): 0.904 | Computed CI value (H292 cells [7]; [42]): 0.235
